Test results reported in ChEMBL document CHEMBL1129156, “Oreganic acid: a potent novel inhibitor of ras farnesyl-protein transferase from an endophytic fungus” (Bioorg Med Chem Lett, 1996).
Calls of active or inactive are those of the source.

Columns and labels:
Format in all cases: protein-complex assay
[1] = biological target: T1, Protein farnesyltransferase (Homo sapiens, UniProt P49354+P49356); test: In vitro inhibition of human recombinant Protein farnesyltransferase
[2] = biological target: T1, Protein farnesyltransferase; test: In vitro inhibition of human recombinant Protein farnesyltransferase with respect to FPP
[3] = biological target: T1, Protein farnesyltransferase; test: In vitro inhibition of human recombinant Protein farnesyltransferase at 20 uM (Inactive)

IC50 [1] [nM]	Ki [2] [nM]	Activity [3]	SMILES
14	4.5		O=C(O)C/C(C(=O)O)=C(/CCCCCCCCCCCCCCCCOS(=O)(=O)O)C(=O)O
3.3			O=C(O)C/C(C(=O)O)=C(/CCCCCCCCCCCCCCCCO)C(=O)O
		inactive	COC(=O)C/C(C(=O)OC)=C(/CCCCCCCCCCCCCCCCO)C(=O)OC
10.6			COC(=O)C/C(C(=O)OC)=C(/CCCCCCCCCCCCCCCCOS(=O)(=O)O)C(=O)OC
